The results in this text go back to patent publication US20130065227A1, “METHODS OF INCREASING MACROPINOCYTOSIS IN CANCER CELLS” (priority 2010, published 2013).

For experiment [1], the system named is MCF7. The experiment in a line: Stimulation of macropinocytosis (dextran uptake). In kind it is cell-based. To be noted: MCF-7, 10 μM for 48 hr or 72 hr. As to the method:
(§1) FIG. 10 are graphs showing the stimulation of macropinocytosis by GROs. Breast carcinoma cells (MDA-MB-231, MCF-7) or non-malignant breast epithelial cells (MCF10A) cells were plated 18 hr before treatment with 10 μM tAS1411 or 10 μM tCRO or water in complete DMEM medium at 37° C. for 48 hr or 72 hr. After treatment, cell medium was changed for fresh complete medium containing 0.2 mg/ml dextran-10K labeled with Alexa Fluor 488 and cells were incubated for 30 min at 37° C. Cells were then incubated on ice with 1 mg/ml PI in PBS, harvested, and analyzed by flow cytometry. Uptake was normalized to no pre-treatment controls and bars show the mean and SE of three independent experiments.
(§2) To analyze uptake of the oligodeoxynucleotides or dextran-10K (macropinocytic marker) by flow cytometry, 2×10^5 cells in fresh supplemented culture medium (2.5 ml) were plated into 6-well plates for 18 h. After complete adhesion, the cells were incubated with 5′-FAM tagged oligodeoxynucleotides or Alexa Fluor 488 tagged dextran-10K and incubated as indicated in the Description of the Drawings. Cells were washed once with ice-cold PBS, incubated with 1 μg/ml 7-amino-actinomycin D (7-AAD) for 5 min on ice or 1 μg/ml propidium iodide (PI), and washed twice with ice-cold PBS. Cells were then treated with 0.01% trypsin/0.5 mM EDTA (300 μl) for 3 min prior addition 3 ml supplemented culture medium. The cells were then centrifuged and resuspended in 0.5 ml of 1% paraformaldehyde for analysis by flow cytometry using a FACScalibur cytometer (BD Biosciences, Mountain View, Calif.).
(§3) AS1411 causes a change in cancer cell morphology that is characterized by vacuolization, irregular nuclei, and swollen cells (Xu et al., 2001, J. Biol. Chem., 276:43221-30). Therefore, the effect of AS1411 on macropinocytosis in DU145 cells and non-malignant Hs27 cells was investigated. […] As in all of the flow cytometry experiments, cells were gated to exclude permeable cells, discounting the possibility that this increase was due to cell death. […] One implication of the finding that AS1411 causes hyperstimulation of macropinocytosis is that treatment of AS1411 might actually promote its own internalization by cancer cells. To test this idea, DU145 cells were pre-treated for 24 h with tAS1411, then added FL-AS1411 and evaluated uptake after an additional 2 h using flow cytometry. […] This idea is not necessarily inconsistent with the time course data shown in FIG. 1A because the fluorescence signal may decrease over time for a number of reasons, including exocytosis of the ligand and fluorescence quenching due to protein binding or environmental factors (the fluorophore used for flow cytometry is particularly sensitive to acidic environments). […]

Experiment [2] deals with MDA-MB-231. The experiment is described as follows: Stimulation of macropinocytosis (dextran uptake). In kind it is cell-based. Conditions: MDA-MB-231, 10 μM for 48 hr or 72 hr. As to the method: as §1, §2, §3
Experiment [3] relates to DU145 cells. The experiment in a line: FL-AS1411 uptake after tAS1411 pre-treatment (flow cytometry). In kind it is cell-based. To be noted: 10 μM pre-treatment for 24 h, then 10 μM FL-AS1411 2 h. As to the method: FIG. 6 are graphs showing that nucleolin regulates AS1411-induced stimulation of macropinocytosis. DU145 cells were untreated (no transfection) or transfected, without siRNA (mock), or with 30 nM of one of three different nucleolin siRNAs (NCL1, NCL2, NCL3) or a control siRNA (scramble). 48 h after transfection, cells were incubated with 10 μM tAS1411, 10 μM tCRO, or no oligonucleotide in complete DMEM medium at 37° C. for 24 h. (Panel A) After treatment, cell medium was changed for fresh complete medium containing 0.2 mg/ml dextran-10K labeled with Alexa Fluor 488 (green) and incubated for 30 min at 37° C. […] After incubation, cells were harvested and analyzed by flow cytometry. Mean fluorescence was normalized to “not transfected” control (Panel A) or to no pre-treatment control (Panel B). […]
FIG. 12 are graphs showing the effectiveness of pre-treatment of cells with a GRO. […] After incubation, cells were incubated on ice with 1 mg/ml PI in PBS, harvested, fixed and immediately analyzed by flow cytometry. […]
AS1411 causes a change in cancer cell morphology that is characterized by vacuolization, irregular nuclei, and swollen cells (Xu et al., 2001, J. Biol. Chem., 276:43221-30). […] To test this idea, DU145 cells were pre-treated for 24 h with tAS1411, then added FL-AS1411 and evaluated uptake after an additional 2 h using flow cytometry. […]

In experiment [4] the test system is MCF10A. The experiment in a line: Stimulation of macropinocytosis (dextran uptake). In kind it is cell-based, human. To be noted: MCF-10A, 10 μM for 48 hr or 72 hr. The protocol:
as §1, with “experiments. […]” for “experiments.”
(§4) AS1411 causes a change in cancer cell morphology that is characterized by vacuolization, irregular nuclei, and swollen cells (Xu et al., 2001, J. Biol. Chem., 276:43221-30). […] To test this idea, DU145 cells were pre-treated for 24 h with tAS1411, then added FL-AS1411 and evaluated uptake after an additional 2 h using flow cytometry. […] This idea is not necessarily inconsistent with the time course data shown in FIG. 1A because the fluorescence signal may decrease over time for a number of reasons, including exocytosis of the ligand and fluorescence quenching due to protein binding or environmental factors (the fluorophore used for flow cytometry is particularly sensitive to acidic environments). […]

The subject of experiment [5] is Hs27 cells. The experiment is described as follows: FL-AS1411 uptake after tAS1411 pre-treatment (flow cytometry). In kind it is cell-based, human. Conditions: 10 μM pre-treatment for 24 h, then 10 μM FL-AS1411 2 h. As to the method: FIG. 12 are graphs showing the effectiveness of pre-treatment of cells with a GRO. DU145 or Hs27 cells were treated with or without 10 μM tAS1411 in complete DMEM medium at 37° C. for 24 h. After treatment, cells were washed, fresh complete medium containing 10 μM FL-AS1411 was added, and cells were incubated for a further 2 h at 37° C. After incubation, cells were incubated on ice with 1 mg/ml PI in PBS, harvested, fixed and immediately analyzed by flow cytometry.
To analyze uptake of the oligodeoxynucleotides or dextran-10K (macropinocytic marker) by flow cytometry, 2×10^5 cells in fresh supplemented culture medium (2.5 ml) were plated into 6-well plates for 18 h. […]
AS1411 causes a change in cancer cell morphology that is characterized by vacuolization, irregular nuclei, and swollen cells (Xu et al., 2001, J. Biol. Chem., 276:43221-30). […] To test this idea, DU145 cells were pre-treated for 24 h with tAS1411, then added FL-AS1411 and evaluated uptake after an additional 2 h using flow cytometry. […] This idea is not necessarily inconsistent with the time course data shown in FIG. 1A because the fluorescence signal may decrease over time for a number of reasons, including exocytosis of the ligand and fluorescence quenching due to protein binding or environmental factors (the fluorophore used for flow cytometry is particularly sensitive to acidic environments).

The test system of experiment [6] is DU145. The experiment is described as follows: Stimulation of macropinocytosis (dextran uptake). In kind it is cell-based. The protocol:
(Panel A) DU145 cells were treated with 10 μM tAS1411 or 10 μM tCRO or no oligonucleotide in complete DMEM medium at 37° C. for the time indicated. After treatment, cell medium was changed for fresh complete medium containing 0.2 mg/ml dextran-10K labeled with Alexa Fluor 488, and cells were incubated for 30 min at 37° C. After incubation, cells were harvested and analyzed by flow cytometry to determine dextran uptake. (Panel B) The same experiment was performed using Hs27 cells. (Panel C) DU145 cells were treated with 10 μM tAS1411 or 10 μM tCRO or no oligonucleotide in complete DMEM medium at 37° C. for 48 h. After treatment, cell medium was changed for fresh complete medium containing 0.2 mg/ml dextran-10K tagged with Alexa Fluor 488, and cells were incubated for 30 min at 37° C. Then, cells were washed with cold PBS, added PBS containing 5 μg/ml PI and incubated on ice for 5 min. After washing with cold PBS, cells were fixed and the distribution of macropinocytic marker was visualized by confocal microscopy. The nucleus was stained with DAPI (blue). Scale bars, 10 μm. All experiments have been repeated at least three times. Data are mean of three independent samples; bars, SE; *(p<0.05).
FIG. 6 are graphs showing that nucleolin regulates AS1411-induced stimulation of macropinocytosis. DU145 cells were untreated (no transfection) or transfected, without siRNA (mock), or with 30 nM of one of three different nucleolin siRNAs (NCL1, NCL2, NCL3) or a control siRNA (scramble). 48 h after transfection, cells were incubated with 10 μM tAS1411, 10 μM tCRO, or no oligonucleotide in complete DMEM medium at 37° C. for 24 h. (Panel A) After treatment, cell medium was changed for fresh complete medium containing 0.2 mg/ml dextran-10K labeled with Alexa Fluor 488 (green) and incubated for 30 min at 37° C. (Panel B) After treatment, some cells were washed, fresh complete medium containing 10 μM FL-AS1411 added and incubated for 2 h at 37° C. After incubation, cells were harvested and analyzed by flow cytometry. Mean fluorescence was normalized to “not transfected” control (Panel A) or to no pre-treatment control (Panel B). All experiments have been repeated at least three times. Data are the mean of three independent samples; bars, SE; *(p<0.05).
FIG. 11 is a graph showing a comparison between AS1411 and tAS1411 in the ability to stimulate macropinocytosis. DU145 cells were plated 18 hr before treatment with different concentrations (0, 5, 10, or 15 μM) of AS1411, tAS1411 or tCRO in complete DMEM medium at 37° C. for 48 h. After treatment, cell medium was changed for fresh complete medium containing 0.2 mg/ml dextran-10K labeled with Alexa Fluor 488, and cells were incubated for 30 min at 37° C. After incubation, cells were incubated on ice with […] PI in PBS, harvested, fixed and immediately analyzed by flow cytometry.
as §2
AS1411 causes a change in cancer cell morphology that is characterized by vacuolization, irregular nuclei, and swollen cells (Xu et al., 2001, J. Biol. Chem., 276:43221-30). […]

Experiment [7] has as its system Hs27. The experiment in a line: Stimulation of macropinocytosis (dextran uptake). In kind it is cell-based, human. To be noted: 10 μM for 24, 48, or 72 h, flow cytometry. The protocol: (Panel A) DU145 cells were treated with 10 μM tAS1411 or 10 μM tCRO or no oligonucleotide in complete DMEM medium at 37° C. for the time indicated. After treatment, cell medium was changed for fresh complete medium containing 0.2 mg/ml dextran-10K labeled with Alexa Fluor 488, and cells were incubated for 30 min at 37° C. After incubation, cells were harvested and analyzed by flow cytometry to determine dextran uptake. (Panel B) The same experiment was performed using Hs27 cells. (Panel C) DU145 cells were treated with 10 μM tAS1411 or 10 μM tCRO or no oligonucleotide in complete DMEM medium at 37° C. for 48 h. […]
as §4
In general terms: In flow cytometry, cells or beads pass a laser one at a time.

With “5′-d(TTTGGTGGTGGTGGTTGTGGTGGTGGTGG) [tAS1411]”, the stimulation of macropinocytosis entry is reported as “induce hyperstimulation of macropinocytosis” in experiment [1], “induce hyperstimulation of macropinocytosis” in experiment [2] and “much reduced effect” in experiment [4]. Moreover, the “uptake of FL-AS1411 after pre-treatment” value in experiment [3] is “increase in the uptake of FL-AS1411”; in experiment [5], “no comparable increase”. For the same substance, the “uptake of the macropinocytic marker, dextran, after treatment” value is reported as “significant increment in the uptake of the macropinocytic marker, dextran” in experiment [6] (10 μM for 24, 48, or 72 h, flow cytometry) and “no increase” in experiment [7]. In experiment [6] (10 μM for 48 h, versus untreated or CRO-treated cells), the “dextran uptake by confocal microscopy” value is “higher dextran uptake confined in large vesicle”.
